Measured values: paper PMC7037947, “Novel ACE Inhibitory Peptides Derived from Simulated Gastrointestinal Digestion in Vitro of Sesame (Sesamum indicum L.) Protein and Molecular Docking Study” (International Journal of Molecular Sciences, 2020)
Ends that are not written are not given here.

T1: Angiotensin Converting Enzyme (ACE) from rabbit lung (Oryctolagus cuniculus, UniProt P12822)
T1 construct: Angiotensin Converting Enzyme (ACE) from rabbit lung; purchased Sigma-Aldrich (St. Louis, MO, USA); host or cells: rabbit lung (tissue-derived)
T1 sequence (P12822 34-1310): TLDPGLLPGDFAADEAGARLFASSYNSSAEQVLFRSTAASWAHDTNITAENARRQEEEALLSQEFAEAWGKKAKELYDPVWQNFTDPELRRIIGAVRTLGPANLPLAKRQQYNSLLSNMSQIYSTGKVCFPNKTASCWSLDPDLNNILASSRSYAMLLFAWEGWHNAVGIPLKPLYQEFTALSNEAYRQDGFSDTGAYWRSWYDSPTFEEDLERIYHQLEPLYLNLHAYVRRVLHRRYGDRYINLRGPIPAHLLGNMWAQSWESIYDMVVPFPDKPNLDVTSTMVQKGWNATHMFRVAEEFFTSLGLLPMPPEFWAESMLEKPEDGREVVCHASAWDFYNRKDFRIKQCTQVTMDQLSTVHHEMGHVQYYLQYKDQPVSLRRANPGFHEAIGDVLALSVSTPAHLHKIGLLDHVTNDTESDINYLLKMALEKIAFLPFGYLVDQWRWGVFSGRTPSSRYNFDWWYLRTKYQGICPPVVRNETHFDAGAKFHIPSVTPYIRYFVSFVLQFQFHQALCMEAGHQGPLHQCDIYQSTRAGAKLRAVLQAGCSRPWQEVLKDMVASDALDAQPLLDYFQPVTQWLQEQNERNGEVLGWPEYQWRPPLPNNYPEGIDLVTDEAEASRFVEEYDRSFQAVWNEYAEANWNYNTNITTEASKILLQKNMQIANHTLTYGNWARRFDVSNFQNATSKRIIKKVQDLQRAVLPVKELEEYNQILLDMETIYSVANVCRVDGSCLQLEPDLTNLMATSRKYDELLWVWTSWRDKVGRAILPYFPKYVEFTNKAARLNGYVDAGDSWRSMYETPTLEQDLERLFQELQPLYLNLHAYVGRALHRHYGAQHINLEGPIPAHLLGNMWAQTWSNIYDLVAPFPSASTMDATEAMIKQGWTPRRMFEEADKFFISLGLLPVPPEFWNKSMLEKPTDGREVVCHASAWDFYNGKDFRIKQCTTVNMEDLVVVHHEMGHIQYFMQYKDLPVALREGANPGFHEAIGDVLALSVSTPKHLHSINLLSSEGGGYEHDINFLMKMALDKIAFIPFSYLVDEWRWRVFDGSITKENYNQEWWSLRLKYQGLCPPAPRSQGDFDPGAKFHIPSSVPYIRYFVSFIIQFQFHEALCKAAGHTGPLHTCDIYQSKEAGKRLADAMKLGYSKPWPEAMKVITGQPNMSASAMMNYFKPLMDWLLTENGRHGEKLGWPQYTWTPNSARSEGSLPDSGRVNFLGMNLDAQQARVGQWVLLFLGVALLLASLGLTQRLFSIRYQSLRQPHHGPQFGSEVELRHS

T2: Angiotensin Converting Enzyme (ACE) from rabbit lung (rabbit) (UniProt P12822)
T2 sequence: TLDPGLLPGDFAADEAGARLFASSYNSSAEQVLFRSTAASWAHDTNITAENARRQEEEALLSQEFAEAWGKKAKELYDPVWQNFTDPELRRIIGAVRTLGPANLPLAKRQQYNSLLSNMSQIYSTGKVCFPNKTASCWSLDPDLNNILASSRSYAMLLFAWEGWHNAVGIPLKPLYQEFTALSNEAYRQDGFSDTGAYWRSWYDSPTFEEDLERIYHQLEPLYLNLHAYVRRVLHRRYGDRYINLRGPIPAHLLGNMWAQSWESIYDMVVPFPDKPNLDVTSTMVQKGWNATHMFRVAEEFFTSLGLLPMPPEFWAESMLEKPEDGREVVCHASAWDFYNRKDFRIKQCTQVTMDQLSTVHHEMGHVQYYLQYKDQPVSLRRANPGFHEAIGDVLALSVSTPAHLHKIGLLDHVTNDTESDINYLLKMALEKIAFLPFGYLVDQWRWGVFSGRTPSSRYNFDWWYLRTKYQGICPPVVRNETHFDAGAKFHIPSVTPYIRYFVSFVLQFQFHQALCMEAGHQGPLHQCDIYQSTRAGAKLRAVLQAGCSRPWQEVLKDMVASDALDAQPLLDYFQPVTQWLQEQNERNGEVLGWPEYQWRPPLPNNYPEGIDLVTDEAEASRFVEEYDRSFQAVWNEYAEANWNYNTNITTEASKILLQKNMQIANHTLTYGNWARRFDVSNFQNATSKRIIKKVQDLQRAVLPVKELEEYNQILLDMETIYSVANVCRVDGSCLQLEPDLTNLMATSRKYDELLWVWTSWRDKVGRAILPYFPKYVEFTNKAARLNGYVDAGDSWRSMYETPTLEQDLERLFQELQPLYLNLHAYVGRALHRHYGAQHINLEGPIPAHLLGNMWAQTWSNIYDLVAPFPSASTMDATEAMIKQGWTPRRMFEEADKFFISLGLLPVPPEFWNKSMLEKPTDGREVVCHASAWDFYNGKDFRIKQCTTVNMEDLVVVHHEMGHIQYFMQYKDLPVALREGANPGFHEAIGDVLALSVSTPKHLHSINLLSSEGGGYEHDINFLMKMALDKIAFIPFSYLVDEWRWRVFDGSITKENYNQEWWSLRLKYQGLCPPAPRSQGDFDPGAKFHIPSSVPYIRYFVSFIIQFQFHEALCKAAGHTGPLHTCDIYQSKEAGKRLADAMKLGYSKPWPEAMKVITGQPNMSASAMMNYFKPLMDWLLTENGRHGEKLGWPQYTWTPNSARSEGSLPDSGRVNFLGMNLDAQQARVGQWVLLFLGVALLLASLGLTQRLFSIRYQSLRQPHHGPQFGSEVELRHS


Legend:
[1] = target: T1, Angiotensin Converting Enzyme (ACE) from rabbit lung; assay: ACE inhibitory activity assay (HHL substrate, OPA fluorescence); format: biochemical; settings: chemically synthesized peptides identified from peak 4; mean ± SD, n = 3; read-out: IC50 Value inhibiting ACE activity
Excerpt: White sesame (Sesamum indicum L.) seeds were purchased from China Oil and Foodstuffs Corporation (Beijing, China). […] Pepsin (3000-3500 NFU/g), trypsin (250.N.F.U/mg), and α-chymotrypsin (1200 u/mg) were obtained from Solarbio Science and Technology Co., Ltd. (Beijing, China). Nanofiltration and ultrafiltration membranes were purchased from Rising Sun Membrane Technology Co., Ltd. (Beijing, China). All other reagents used in this study were of analytical grade. The ACE inhibitory activity was measured by using cary eclipse fluorescence spectrophotometer (Agilent Technologies Australia Pty Ltd., Mulgrave, Australia) according to a modified method of Li et al.. The sample was dissolved by distilled water to the appropriate concentration and the 96-well plate was used as the reaction vessel. Briefly, 30 μL of HHL substrate containing 0.3 mol/L NaCl in 50 mM borate buffer (pH 8.3) and 15 μL of samples were mixed. […] The reaction was stopped by using 125 μL of 1.2 mol/L NaOH. Finally, 30 μL of methanol solution containing 2% OPA was added, mixed evenly, and then stood at room temperature for 20 min. The derivative reaction was terminated by adding 40 μL of 6 mol/L HCl. The reaction solution was diluted 10 times and added into the fluorescence cell. The fluorescence absorption intensity was measured within 30–90 min. […] All assays were performed in triplicate. ACE inhibitory activity was calculated by using the following equation:ACE inhibitory activity (%) = [1 − (a−c)/(b−d)] × 100(2) where a is the fluorescence absorption intensity in the presence of both ACE and inhibitor, b is the fluorescence absorption intensity in the presence of ACE but not inhibitor, c is the fluorescence absorption intensity in the presence of inhibitor but not ACE, d is the fluorescence absorption intensity in the absence of both ACE and inhibitor.

ACE = system: ACE; parameters: method as in doi:10.1007/s10989-015-9471-y; settings: peptide from sesame protein hydrolyzed by alcalase, ref [20], cited from earlier work
[2] = target: T2, Angiotensin Converting Enzyme (ACE) from rabbit lung (rabbit)

| Molecule | IC50 [1] [µM] | IC50 of ACE inhibitory activity (enzyme activity on HHL substrate, OPA fluorescence, 37 °C, pH 8.3) [2] [μM] | other results |
| --- | --- | --- | --- |
| AFPAGAAHW | 29 ± 0.2 |  |  |
| FMPGVPGPIQR | 11.1 ± 0.15 |  |  |
| HIGNILSL | 36.69 ± 0.33 |  |  |
| INTLSGR [INTLSGR] | 149.6 ± 0.33 |  |  |
| PNYHPSPR | 19 ± 0.26 |  |  |
| YAHYSYA |  |  | IC50 value, ACE inhibition (ACE): 600 µg/mL; IC50 (ACE; read-out: IC50 value, ACE inhibition): 687 µM |
| FMPGVPGPIQR |  | 11.1 |  |
| HIGNILSL |  | 36.7 |  |
| LAGNPAGR |  | 148 |  |

Second part, led by results:

| IC50 [1] [µM] | IC50 of ACE inhibitory activity (enzyme activity on HHL substrate, OPA fluorescence, 37 °C, pH 8.3) [2] [μM] | Molecule | other results |
| --- | --- | --- | --- |
| 68.49 ± 0.14 |  | AGALGDSVTVTR |  |
| 3.6 ± 0.1 |  | GHIITVAR |  |
| 74.65 ± 0.13 |  | HIITLGR [HIITLGR] |  |
| 148.4 ± 0.35 |  | LAGNPAGR |  |
| 54.79 ± 0.37 |  | MPGVPGPIQR |  |
|  | 150 | INTLSGR |  |
|  | 54.8 | MPGVPGPIQR |  |
|  | 3.6 | GHIITVAR |  |
|  | 29 | AFPAGAAHW |  |
|  | 68.5 | AGALGDSVTVTR |  |
|  | 19 | PNYHPSPR |  |
|  | 74.7 | HIITLGR |  |
